In patent publication US20230045421A1 (priority 2018, published 2023):
Read-outs that look alike come from different tables or passages of the source.

Tested on: HBV rcDNA
Assay: HepDE19 assay with bDNA quantitation of HBV rcDNA
Type: cell-based, hepatitis B virus
Method: HepDE19 Assay with bDNA Quantitation of HBV rcDNA:
HepDE19 cell culture system is a HepG2 (human hepatocarcinoma) derived cell line that supports HBV DNA replication and cccDNA formation in a tetracycline (Tet)-regulated manner and produces HBV rcDNA and a detectable reporter molecule dependent on the production and maintenance of cccDNA (Guo, et al., 2007, J. Virol. 81:12472-12484).
HepDE19 (50,000 cells/well) were plated in 96-well collagen-coated tissue-culture treated microtiter plates in DMEM/F12 medium supplemented with 10% fetal bovine serum, 1% penicillin-streptomycin and 1 μg/mL tetracycline and incubated in a humidified incubator at 37° C. and 5% CO2 overnight. Next day, the cells were switched to fresh medium without tetracycline and incubated for 4 hours at 37° C. and 5% CO2. The cells were treated with fresh Tet-free medium with compounds at concentrations starting at 25 μM and a serial, […], 8-point, titration series in duplicate. The final DMSO concentration in the assay was 0.5%. The plates were incubated for 7 days in a humidified incubator at 37° C. and 5% CO2. Following a 7 day-incubation, the level of rcDNA present in the inhibitor-treated wells was measured using a Quantigene 2.0 bDNA assay kit (Affymetrix, Santa Clara, Calif.) with HBV specific custom probe set and manufacturers instructions. Concurrently, the effect of compounds on cell viability was assessed using replicate plates, plated at a density of 5,000 cells/well and incubated for 4 days, to determine the ATP content as a measure of cell viability using the cell-titer glo reagent (CTG; Promega Corporation, Madison, Wis.) as per manufacturer's instructions. The plates were read using a Victor luminescence plate reader (PerkinElmer Model 1420 Multilabel counter) and the relative luminescence units (RLU) data generated from each well was calculated as % inhibition of the untreated control wells and analyzed using XL-Fit module in Microsoft Excel to determine EC50 and EC90 (bDNA) and CC50 (CTG) values using a 4-parameter curve fitting algorithm.

[1] = HepDE19 assay, inhibition of formation of relaxed circular DNA (rcDNA), bDNA quantitation; read-out: DE-19bDNA EC50
[2] = Hepatitis B virus, HepDE19, HepDE19 assay, inhibition of formation of relaxed circular DNA (rcDNA), bDNA quantitation; read-out: DE-19bDNA EC50
[3] = HepDE19 assay, inhibition of formation of rcDNA; read-out: DE-19bDNA EC50
[4] = Hepatitis B virus, HepDE19, HepDE19 assay, inhibition of formation of rcDNA; read-out: DE-19bDNA EC50

CC(C)CN(C(=O)Nc1ccc(F)c(Cl)c1)C(C)c1c[nH]c(=O)c2c(F)cc(F)cc12 (single isomer, unassigned) [Compound 372, 3-(3-Chloro-4-fluorophenyl)-1-(1-(6,8-difluoro-1-oxo-1,2-dihydroisoquinolin-4-yl)ethyl)-1-isobutylurea]
EC50 [1]: 5 nM

CC(c1cnc(C(=O)O)c2ccccc12)N(C)C(=O)Nc1ccc(F)c(Cl)c1 (single isomer, unassigned) [Compound 325, 4-(1-(3-(3-Chloro-4-fluorophenyl)-1-methylureido)ethyl)isoquinoline-1-carboxylic acid]
EC50 [2]: 4200 nM

CC(c1c[nH]c(=O)c2cc(F)c(F)cc12)N(C)C(=O)Nc1ccc2cc[nH]c2c1 (single isomer, unassigned) [Compound 486, 1-(1-(6,7-Difluoro-1-oxo-1,2-dihydroisoquinolin-4-yl)ethyl)-3-(1H-indol-6-yl)-1-methylurea]
EC50 [1]: 200 nM

CCN(C(=O)Nc1ccc(F)c(Cl)c1)C(c1cnc(OC)c2ccccc12)C(C)C (single isomer, unassigned) [Compound 45, 3-(3-Chloro-4-fluorophenyl)-1-ethyl-1-(1-(1-methoxyisoquinolin-4-yl)-2-methylpropyl)urea]
EC50 [3]: 19000 nM

CCCCN(Cc1c[nH]c(=O)c2ccccc12)C(=O)Nc1ccc(F)c(Cl)c1 [Compound 52, 1-Butyl-3-(3-chloro-4-fluorophenyl)-1-((1-oxo-1,2-dihydroisoquinolin-4-yl)methyl)urea]
EC50 [4]: 80 nM

CC(c1c[nH]c(=O)c2ccccc12)N(CC(=O)N(C)C)C(=O)Nc1ccc(F)c(Cl)c1 (racemic) [Compound 147, 2-(3-(3-Chloro-4-fluorophenyl)-1-(1-(1-oxo-1,2-dihydroisoquinolin-4-yl)ethyl)ureido)-N,N-dimethylacetamide]
EC50 [4]: 840 nM

CCCN(Cc1c[nH]c(=O)c2ccccc12)C(=O)Nc1ccc(F)c(Cl)c1 [Compound 28, 3-(3-Chloro-4-fluorophenyl)-1-((1-oxo-1,2-dihydroisoquinolin-4-yl)methyl)-1-propylurea]
EC50 [4]: 60 nM

CC(c1c[nH]c(=O)c2c(F)c(F)ccc12)N(C)C(=O)Nc1ccc(Cl)cc1 (single isomer, unassigned) [Compound 444, 3-(4-Chlorophenyl)-1-(1-(7,8-difluoro-1-oxo-1,2-dihydroisoquinolin-4-yl)ethyl)-1-methylurea]
EC50 (read-out: DE-19bDNA EC50; HepDE19 assay, inhibition of formation of relaxed circular DNA (rcDNA), bDNA quantitation): 17000 nM

CC(c1c[nH]c(=O)c2c(F)c(F)ccc12)N(CCS(N)(=O)=O)C(=O)Nc1ccc(F)c(Cl)c1 (racemic) [Compound 393, 2-(3-(3-chloro-4-fluorophenyl)-1-(1-(7,8-difluoro-1-oxo-1,2-dihydroisoquinolin-4-yl)ethyl)ureido) ethane-1-sulfonamide]
EC50 [2]: 37 nM

CN(Cc1cnc(OCc2ccccn2)c2ccccc12)C(=O)Nc1ccc(F)c(Cl)c1 [Compound 88, 3-(3-Chloro-4-fluorophenyl)-1-methyl-1-((1-(pyridin-2-ylmethoxy)isoquinolin-4-yl)methyl)urea]
EC50 [4]: 1100 nM

CCN(C(=O)Nc1ccc(F)c(Cl)c1)C(C)c1c[nH]c(=O)c2cc(F)c(F)cc12 (single isomer, unassigned) [Compound 407, 3-(3-Chloro-4-fluorophenyl)-1-(1-(6,7-difluoro-1-oxo-1,2-dihydroisoquinolin-4-yl)ethyl)-1-ethylurea]
EC50 [1]: 6 nM

CC(c1c[nH]c(=O)c2ccccc12)N(CCCCO)C(=O)Nc1ccc(F)c(Cl)c1 (single isomer, unassigned) [Compound 149, 3-(3-Chloro-4-fluorophenyl)-1-(4-hydroxybutyl)-1-(1-(1-oxo-1,2-dihydroisoquinolin-4-yl)ethyl)urea]
EC50 [3]: 3300 nM

CC(c1c[nH]c(=O)c2cc(F)c(F)cc12)N(C)C(=O)NCc1cc(F)c(F)c(F)c1 (single isomer, unassigned) [Compound 481, 1-(1-(6,7-Difluoro-1-oxo-1,2-dihydroisoquinolin-4-yl)ethyl)-1-methyl-3-(3,4,5-trifluorobenzyl)urea]
EC50 [1]: 530 nM

CC(c1c[nH]c(=O)c2ccccc12)N(CCNCC(F)(F)F)C(=O)Nc1ccc(F)c(Cl)c1 (single isomer, unassigned) [Compound 162, 3-(3-Chloro-4-fluorophenyl)-1-(1-(1-oxo-1,2-dihydroisoquinolin-4-yl)ethyl)-1-(2-((2,2,2-trifluoroethyl)amino)ethyl)urea]
EC50 [3]: 580 nM

CCN(Cc1cnc(OC)c2ccccc12)C(=O)Nc1ccc(F)c(Cl)c1 [Compound 15, 3-(3-Chloro-4-fluorophenyl)-1-ethyl-1-((1-methoxyisoquinolin-4-yl)methyl)urea]
EC50 [4]: 1200 nM

CC(c1cnc(OCc2nc[nH]n2)c2ccccc12)N(C)C(=O)Nc1ccc(F)c(Cl)c1 (single isomer, unassigned) [Compound 146, 1-(1-(1-((1H-1,2,4-Triazol-3-yl)methoxy)isoquinolin-4-yl)ethyl)-3-(3-chloro-4-fluorophenyl)-1-methylurea]
EC50 [3]: 50 nM

CC(c1c[nH]c(=O)c2ccccc12)N(CCCN)C(=O)Nc1ccc(F)c(Cl)c1 (racemic) [Compound 157, 1-(3-aminopropyl)-3-(3-chloro-4-fluorophenyl)-1-(1-(1-oxo-1,2-dihydroisoquinolin-4-yl)ethyl)urea]
EC50 [4]: 23000 nM

CC(c1cn(CCCO)c(=O)c2ccccc12)N(C)C(=O)Nc1ccc(F)c(Cl)c1 (single isomer, unassigned) [Compound 206, 3-(3-Chloro-4-fluorophenyl)-1-(1-(2-(3-hydroxypropyl)-1-oxo-1,2-dihydroisoquinolin-4-yl)ethyl)-1-methylurea]
EC50 [4]: 850 nM

CC(c1c[nH]c(=O)c2c(F)c(F)ccc12)N(C)C(=O)NCc1ccc(F)c(F)c1 (single isomer, unassigned) [Compound 490, 1-(1-(7,8-Difluoro-1-oxo-1,2-dihydroisoquinolin-4-yl)ethyl)-3-(3,4-difluorobenzyl)-1-methylurea]
EC50 [1]: 780 nM

CC(c1c[nH]c(=O)c2ccccc12)N(CCCO)C(=O)Nc1ccc(F)c(Cl)c1 (single isomer, unassigned) [Compound 131, 3-(3-Chloro-4-fluorophenyl)-1-(3-hydroxypropyl)-1-(1-(1-oxo-1,2-dihydroisoquinolin-4-yl)ethyl)urea]
EC50 (read-out: DE-19bDNA EC50; HepDE19 assay, inhibition of formation of rcDNA): 10 nM

COc1ncc(CNC(=O)Nc2ccc(F)c(Cl)c2)c2ccccc12 [Compound 6, 1-(3-Chloro-4-fluorophenyl)-3-((1-methoxyisoquinolin-4-yl)methyl)urea]
EC50 [4]: 9000 nM

CC(C)CN(C(=O)Nc1ccc(F)c(Cl)c1)C(C)c1cn(C)c(=O)c2cc(F)c(F)cc12 (single isomer, unassigned) [Compound 343, 3-(3-Chloro-4-fluorophenyl)-1-(1-(6,7-difluoro-2-methyl-1-oxo-1,2-dihydroisoquinolin-4-yl)ethyl)-1-isobutylurea]
EC50 [1]: 6 nM

CC(c1c[nH]c(=O)c2c(F)c(F)ccc12)N(C)C(=O)NCc1ccc(F)c(Cl)c1 (single isomer, unassigned) [Compound 497, 3-(3-Chloro-4-fluorobenzyl)-1-(1-(7,8-difluoro-1-oxo-1,2-dihydroisoquinolin-4-yl)ethyl)-1-methylurea]
EC50 [1]: 260 nM

CC(c1c[nH]c(=O)c2c(F)c(F)ccc12)N(C)C(=O)Nc1ccc2cc[nH]c2c1 (single isomer, unassigned) [Compound 499, 1-(1-(7,8-Difluoro-1-oxo-1,2-dihydroisoquinolin-4-yl)ethyl)-3-(1H-indol-6-yl)-1-methylurea]
EC50 [1]: 300 nM

CC(c1cn(C2CC2)c(=O)c2ccccc12)N(C)C(=O)Nc1ccc(F)c(Cl)c1 (single isomer, unassigned) [Compound 189, 3-(3-Chloro-4-fluorophenyl)-1-(1-(2-cyclopropyl-1-oxo-1,2-dihydroisoquinolin-4-yl)ethyl)-1-methylurea]
EC50 [3]: 2400 nM

CNC(=O)CCN(C(=O)Nc1ccc(F)c(Cl)c1)C(C)c1c[nH]c(=O)c2ccccc12 (single isomer, unassigned) [Compound 117, 3-(3-(3-Chloro-4-fluorophenyl)-1-(1-(1-oxo-1,2-dihydroisoquinolin-4-yl)ethyl)ureido)-N-methylpropanamide]
EC50 [3]: 13000 nM

CC(c1c[nH]c(=O)c2ccccc12)N(CC1CCCC1)C(=O)Nc1ccc(F)c(Cl)c1 (single isomer, unassigned) [Compound 193, 3-(3-Chloro-4-fluorophenyl)-1-(cyclopentylmethyl)-1-(1-(1-oxo-1,2-dihydroisoquinolin-4-yl)ethyl)urea]
EC50 [3]: 10 nM
